Patent publication US20080280974A1, “Spiro compounds for treatment of inflammatory disorders” (priority 2007, published 2008)
Values belong to the molecule of their own block, whether it stands above or below them.

Key:
[1] = tested on: IL-8 secreted by human pulmonary artery endothelial cells (HPAEC); assay: In vitro IL-8 assay: TNF-alpha-stimulated IL-8 secretion by HPAEC, ELISA; type: cell-based; conditions: Endothelial cell, 10 microM compound, 20 hrs preincubation, then 2 ng/ml TNF-alpha for 4 hrs
Procedure: (§1) In Vitro IL-6 and IL-8 Assays
(§2) Compounds at dosing concentrations (with 0.2% DMSO vehicle) were incubated in EGM2MV cell media at 37° C. for overnight, added to 96-well plates seeded with confluent human pulmonary artery endothelial cells (HPAEC) for 20 hrs at 37° C., and then replaced with fresh dosing media containing 2 ng/ml tumor necrosis factor alpha for additional 4 hrs at 37° C. Afterwards, media was removed and used in ELISA assay to quantify the amount of IL-6 and IL-8 secreted by the cells using R&D Systems Duoset ELISA kits.

[2] = tested on: IL-6 secreted by human pulmonary artery endothelial cells (HPAEC); assay: In vitro IL-6 assay: TNF-alpha-stimulated IL-6 secretion by HPAEC, ELISA; type: cell-based; conditions: Endothelial cell, 10 microM compound, 20 hrs preincubation, then 2 ng/ml TNF-alpha for 4 hrs
Procedure: as §1, §2

[3] = tested on: Balb/CJ mice, ovalbumin-sensitized and challenged; assay: Mouse model of asthma: methacholine-induced airway reactivity (Penh) in ovalbumin-sensitized mice; type: in vivo; conditions: po, 768 h, 50 mg/kg p.o., days 26-32, % inhibition of the PenH vs McH dose AUC compared with vehicle control, day 32, read-out: Reduction of Penh AUC at 50 mg/kg p.o.
Procedure: Protocol for Testing Compounds in a Mouse Model of Asthma
Male 5-6 week old Balb/CJ mice were obtained from Jackson Laboratories (Bar Harbor, Me.). All experimental animals were used in accordance to Institutional Animal Care and Use Committee of AtheroGenics, Inc. Mice were sensitized by administering an intraperitoneal injection of 20 μg of ovalbumin (Calbiochem, La Jolla, Calif.) adsorbed in 2 mg of alum (Imject Alum; Pierce, Rockford, Ill.) on day 0 and 14. A group of mice received saline and served as negative control animals. The mice were challenged by aerosol exposure to ovalbumin (1% [wt/vol]) for 25 minutes on 3 consecutive days (days 28, 29, and 30) in a plexiglas exposure chamber coupled to an Aeroneb nebulizer (Buxco Electronics, Wilmington, N.C.). Experimental compounds were dissolved in Glycofurol/PEG 300/Tween (35%/55%/10%) (Sigma-aldrich; Milwaukee, Wis.). Animals were dosed orally with either test compound or vehicle (6 ml/kg dosing volume) on days 26-32 of study. Compound or vehicle was administered 2 hour before the aerosol challenge on days 28, 29, and 30 and 1 hour before airway reactivity measurement on day 32.
Methacholine-induced airway reactivity was assessed on day 32. Methacholine was administered in increasing concentrations ([…], 1.5, 3, 6, 12, 25, and 50 mg/ml) to unrestrained mice. Increases in airway resistance to Methacholine were determined as enhanced pause, (Penh) values, during and after the exposure (6-minute total analysis time). Mice were then humanely euthanized with an overdose of ketamine/xylazine and plasma samples collected for determination of drug levels. The data is presented as the % inhibition of the PenH vs McH dose AUC compared with the vehicle control.
Data analysis was conducting using the software package, JMP (SAS Institute Inc; Cary, N.C.). The Dunnett's multiple comparison test was used to compare treatment group means to the vehicle control group. P values of less than 0.05 were considered statistically significant. The data (Table 1) are presented as the % inhibition of the PenH vs McH dose AUC compared with the vehicle control.

SMILES: Cc1cc2c(cc1O)C(C)(C)CC1(CC(C)(C)c3cc(OCC(=O)O)c(C)cc3O1)O2 (racemic) [Example 7, (±)-6′-(Hydroxy-4,4,4′,4′,7,7′-hexamethyl-2,2′-spirobichroman-6-yloxy)-acetic acid]
- inhibition at 10 µM [1]: 0%
- inhibition at 10 µM [2]: 12%
- inhibition in vivo at 50 mg/kg [3]: > 40%
- melting point: 227 to 229 °C

SMILES: Cc1cc2c(cc1O)C(C)(C)CC1(CC(C)(C)c3cc(OCCCC(=O)O)c(C)cc3O1)O2 (racemic) [Example 12, 4-[(±)-(6′-Hydroxy-4,4,4′,4′,7,7′-hexamethyl-2,2′-spirobichroman-6-yloxy)-]butyric acid]
- inhibition at 10 µM [1]: 0%
- inhibition at 10 µM [2]: 0%
- inhibition in vivo at 50 mg/kg [3]: < 20%
- melting point: 173 to 174 °C

- melting point: > 260 °C
SMILES: Cc1cc2c(cc1OCC(=O)O)C(C)(C)CC1(CC(C)(C)c3cc(OCC(=O)O)c(C)cc3O1)O2 (racemic) [Example 21, (±)-[(4,4,4′,4′,7,7′-Hexamethyl-2,2′-spirobichroman-6,6′-diyl)bis(oxy)]-bis-acetic acid]
- inhibition at 10 µM [1]: 19%
- inhibition at 10 µM [2]: 25%
- inhibition in vivo at 50 mg/kg [3]: 20 to 40%
